Where two headings read alike, the source gives them in different places.
Assays:
[1] = system: Alternaria alternata; experiment: In vitro poisoned food technique against fungus (Ex. 20); type: cell-based; details: poisoned food technique, PDA medium, dose 1 ml/gm/lit., after seven days
[2] = system: Aphid; details: Dose 1 ml/gm/lit.
[3] = system: Alternaria alternata; experiment: Alternaria leaf spot/blight on inoculated tomato plants (Ex. 28); type: in vivo; details: tomato plants, Alternaria alternata; after 7 days; dose 1 ml/gm/lit
[4] = system: Thrips; details: Thrips on cotton leaves; dose 1 ml/gm/lit.; 10 insects/treatment; 48 hrs after application
[5] = system: Spodoptera litura; experiment: whole plant or invertebrate; details: 72 h
[6] = system: Spodoptera litura; details: Spodoptera litura on castor leaves; dose 1 ml/gm/lit.; 10 insects/treatment; 72 hrs after application
[7] = system: Mite; details: Dose 1 ml/gm/lit.
[8] = Table 13, descriptive; no test described; cited from earlier work
[9] = system: Helicoverpa armigera; details: Helicoverpa armigera 3rd instar on chickpea plants, dose 1 ml/gm/lit. spray
[10] = system: chili seedlings; experiment: Response of chili plants, greenhouse growth (Ex. 31); type: in vivo; details: chili seedlings, dose 1 ml/gm/lit
[11] = system: Aphid; details: Aphids on cotton plants, green house; dose 1 ml/gm/lit.; 10 insects/plant, 10 plants/treatment; 48 hrs
[12] = system: Mealy Bug; details: mealy bug on cotton plants, green house, dose 1 ml/gm/lit. spray
[13] = system: tomato seedlings; experiment: Response of tomato plants, greenhouse growth (Ex. 30); type: in vivo; details: tomato seedlings, dose 1 ml/gm/lit
[14] = system: Thrips; experiment: whole plant or invertebrate; details: in Gossypium hirsutum, 48 h
[15] = system: Thrips; details: thrips on cotton plants, greenhouse, dose 1 ml/gm/lit. spray
[16] = system: Mite; details: mite on okra plants, green house, dose 1 ml/gm/lit. spray
[17] = system: Helicoverpa armigera; details: Helicoverpa armigera on okra fruits, dose 1 ml/gm/lit., 72 Hrs.
[18] = system: Mealy Bug; details: Mealy Bug on cotton leaves, dose 1 ml/gm/lit., 48 Hrs.
[19] = system: Aphid; experiment: whole plant or invertebrate; details: 48 h
[20] = 48 hrs, corrected for water control
[21] = read-out: % Corrected Mortality at 48 Hrs.
[22] = read-out: % Mortality at 48 Hrs.
[23] = 10 insects/treatment, 4 replications

Question: With `CC1=CC(=O)C(C(C)C)=CC1=O` [Thymoquinone] as the compound, how does the “Mean colony Diameter (mm)” value [1] read?
Answer: Its value is 54.00 mm.

Question: And the inhibition of growth at 1 mL or g/L ([1]; vs untreated control, read-out: % Inhibition of growth)?
Answer: The inhibition of growth at 1 mL or g/L was 38.6%.

Question: And the “Total No. of dead insect at 48 Hrs.” value ([2]; 10 insects/treatment, 4 replications, cotton leaves)?
Answer: Its value is 4.75.

Question: What about the “% Corrected Mortality at 48 Hrs.” value ([2]; 48 hrs) of the same compound?
Answer: Its value is 40.00%.

Question: And the “% Disease reduction over Control” value [3]?
Answer: Its value is 44.63%.

Question: What about the “Total No. of dead insect at 48 Hrs.” value [4] of the same compound?
Answer: The value was 2.25.

Question: And the mortality at 1 mL or g/L ([5]; read-out: % Corrected Mortality at 72 Hrs.)?
Answer: Its mortality at 1 mL or g/L is 39.5%.

Question: What about the mortality at 1 mL or g/L ([5]; read-out: % Mortality at 72 Hrs.) of the same compound?
Answer: The mortality at 1 mL or g/L was 42.5%.

Question: And the “Total No. of dead insect at 72 Hrs.” value [6]?
Answer: The value was 4.25.

Question: What about the “Total No. of dead insect at 48 Hrs.” value ([7]; 10 insects/treatment, 4 replications, okra leaves) of the same compound?
Answer: Its value is 3.25.

Question: And the “% Corrected Mortality at 48 Hrs.” value ([7]; 48 hrs)?
Answer: The value was 27.03%.

Question: And the “% Mortality at 48 Hrs.” value ([7]; 48 hrs)?
Answer: Its value is 32.50%.

Question: And the “Acaricidal Activity - Mode of action” value [8]?
Answer: The value was “Contact acaricidal activity”.

Question: What about the “Antioxidant Activity - Mode of action” value [8] of the same compound?
Answer: Its value is “Reducing Oxidative Stress”.

Question: And the “Bactericidal Activity - Mode of action” value [8]?
Answer: The value was “Inhibitory effect on spore”.

Question: And the “Insecticidal Activities - Mode of action” value [8]?
Answer: The value was “Decreased larval survival”.

Question: And the “% Mortality at 72 Hrs.” value ([9]; 72 hrs after application)?
Answer: The value was 45.00%.

Question: And the “% Corrected Mortality at 72 Hrs.” value ([9]; 72 hrs, corrected for water control)?
Answer: Its value is 45.00%.

Question: What about the “CCI 5th Day” value ([10]; 5th day after application) of the same compound?
Answer: Its value is 13.76.

Question: And the “Plant Height (cm) 5th Day” value ([10]; 5th day after application)?
Answer: Its value is 5.77 cm.

Question: What about the “CCI % Increase over pre on 10th Day” value ([10]; 10th day) of the same compound?
Answer: Its value is 58.19%.

Question: And the “Plant Height % Increase over pre on 10th Day” value ([10]; 10th day)?
Answer: Its value is 63.27%.

Question: What about the “Root Lenght (cm) 10th Day” value ([10]; 10th day) of the same compound?
Answer: The value was 4.16 cm.

Question: What about the “Stem Girth % Increase over pre on 10th Day” value ([10]; 10th day) of the same compound?
Answer: Its value is 57.48%.

Question: What about the “CCI 10th Day” value ([10]; 10th day after application) of the same compound?
Answer: The value was 14.

Question: And the “Plant Height (cm) 10th Day” value ([10]; 10th day after application)?
Answer: The value was 6.89 cm.

Question: And the “Root Lenght % Increase over control” value ([10]; 10th day, vs water control)?
Answer: Its value is 52.17%.

Question: And the “Total No. of dead insect at 48 Hrs.” value [11]?
Answer: Its value is 47.50.

Question: And the “% Mortality at 48 Hrs.” value ([12]; 48 hrs after application)?
Answer: Its value is 50.00%.

Question: What about the “Total No. of dead insect at 48 Hrs.” value ([12]; 48 hrs after application) of the same compound?
Answer: The value was 50.00.

Question: And the “% Corrected Mortality at 48 Hrs.” value [12, 20]?
Answer: Its value is 44.44%.

Question: And the “Plant Height 5th Day” value ([13]; 5th day after application)?
Answer: The value was 6.58 cm.

Question: What about the “Stem Girth 5th Day” value ([13]; 5th day after application) of the same compound?
Answer: Its value is 1.68 mm.

Question: What about the “Plant Height 10th Day” value ([13]; 10th day after application) of the same compound?
Answer: Its value is 7.69 cm.

Question: And the “Stem Girth 10th Day” value ([13]; 10th day after application)?
Answer: The value was 2.30 mm.

Question: What about the “Plant Height % Increase over pre on 10th Day” value ([13]; 10th day) of the same compound?
Answer: Its value is 41.36%.

Question: And the “Stem Girth % Increase over pre on 10th Day” value ([13]; 10th day)?
Answer: The value was 74.24%.

Question: What about the “CCI 5th Day” value ([13]; 5th day after application) of the same compound?
Answer: The value was 14.21.

Question: What about the “CCI % Increase over pre on 10th Day” value ([13]; 10th day) of the same compound?
Answer: The value was 30.73%.

Question: What about the “Root Length (cm) 10th Day” value ([13]; 10th day) of the same compound?
Answer: Its value is 4.42 cm.

Question: And the “CCI 10th Day” value ([13]; 10th day after application)?
Answer: The value was 16.21.

Question: What about the “Root Length % Increase over control” value ([13]; 10th day, vs water control) of the same compound?
Answer: Its value is 32.93%.

Question: What about the mortality at 1 mL or g/L [14, 21] of the same compound?
Answer: The mortality at 1 mL or g/L was 11.4%.

Question: And the mortality at 1 mL or g/L [14, 22]?
Answer: The mortality at 1 mL or g/L was 22.5%.

Question: What about the “% Mortality at 48 Hrs.” value ([15]; 48 hrs after application) of the same compound?
Answer: Its value is 20.00%.

Question: And the “Total No. of dead insect at 48 Hrs.” value ([15]; 48 hrs after application)?
Answer: The value was 20.00.

Question: And the “% Corrected Mortality at 48 Hrs.” value [15, 20]?
Answer: The value was 11.11%.

Question: What about the “% Mortality at 48 Hrs.” value ([16]; 48 hrs after application) of the same compound?
Answer: Its value is 30.00%.

Question: And the “Total No. of dead insect at 48 Hrs.” value ([16]; 48 hrs after application)?
Answer: The value was 30.00.

Question: What about the “% Corrected Mortality at 48 Hrs.” value [16, 20] of the same compound?
Answer: Its value is 26.32%.

Question: And the “Total No. of dead insect at 72 Hrs.” value [17, 23]?
Answer: The value was 4.25.

Question: What about the “% Mortality at 72 Hrs.” value [17] of the same compound?
Answer: Its value is 42.50%.

Question: And the “% Corrected Mortality at 72 Hrs.” value ([17]; corrected for water control)?
Answer: The value was 42.50%.

Question: What about the “Total No. of dead insect at 48 Hrs.” value [18, 23] of the same compound?
Answer: The value was 5.25.

Question: What about the “% Mortality at 48 Hrs.” value [18] of the same compound?
Answer: The value was 52.50%.

Question: And the “% Corrected Mortality at 48 Hrs.” value ([18]; corrected for water control)?
Answer: The value was 50.00%.

Question: And the mortality at 1 mL or g/L [19, 21]?
Answer: Its mortality at 1 mL or g/L is 38.2%.

Question: And the mortality at 1 mL or g/L [19, 22]?
Answer: Its mortality at 1 mL or g/L is 47.5%.

Source: patent US20250351832A1, “PHYTOCHEMICALS AS BIOPESTICIDES AND BIOSTIMULANTS” (KAY BEE BIO ORGANICS PVT. LTD., priority 2024, published 2025)
